# Patent publication US20090104148A1, “Treatment and prevention of joint disease” (priority 2007, published 2009)
# “Also recorded” adds a separate entry of the source.
# Assays:
# Format in all cases: in vivo, Male Lewis rats
# [1] = tested on: ACL-transection (ACLT) model; test: SF lavage lubricin levels by sandwich ELISA, ACL-transection model, Example 3; settings: etanercept-treated ACLT joints vs non-treated ACLT joints, 0.5 mg/kg subcutaneously days 1, 3, 5, 7, 9, 11, 13, 2 weeks following ACLT
# Procedure: (§1) The following reagents and methods were used to evaluate inhibition of the effects of TNF-α by etanercept and the preservation of joint lubrication and decrease cartilage damage following an ACL injury. ACL-transection (ACLT) model and entanercept administration: Male Lewis rats 7-8 weeks were assigned to either an ACL-transection group (n=5), etanercept-treated ACL-transection group (n=5) or a sham-group (n=4). Etanercept was given subcutaneously at 0.5 mg/kg on days 1, 3, 5, 7, 9, 11, and 13 following ACLT. At 14 days following surgery, ACLT, contralateral (CL) and sham (S) joints were harvested and lavaged. Lavaging was performed by injecting 100 μl in the joint capsule, flexing and extending the joint for ten times and aspirating 50 μl of fluid. SF Lubricin levels: Lubricin levels were determined using sandwich ELISA employing a lubricin-specific monoclonal antibody, and peanut agglutinin (PNA). Ex-vivo joint μ: Articular joints' μ values were determined using modified Stanton pendulum (Elsaid K A et al, Arthritis Rheum 2007; 56:108-116). sGAG levels in SF lavages: Total sGAG levels were determined by Alcian blue binding assay.
# [2] = tested on: ACL-transection (ACLT) model; test: Ex-vivo joint coefficient of friction (μ), modified Stanton pendulum, ACL-transection model, Example 3; settings: etanercept-treated ACLT joints vs non-treated ACLT joints; 0.5 mg/kg subcutaneously days 1-13; 2 weeks following ACLT
# Procedure: as §1
# [3] = tested on: ACL-transection (ACLT) model; test: sGAG levels in SF lavages by Alcian blue binding assay, ACL-transection model, Example 3; settings: etanercept-treated vs non-treated joints; 0.5 mg/kg subcutaneously days 1-13; 2 weeks following ACLT
# Procedure: as §1
# ACL-transection model [4] = test: SF lavage lubricin levels by sandwich ELISA, early vs late etanercept, ACL-transection model, Example 4; settings: 28 days following transection
# Procedure: (§2) Etanercept was administered to animals, and condroprotection was evaluated using an ACL-transection model. Male Lewis rats 7-8 weeks were assigned to either an ACL-transection group (n=5), 2 etanercept-treated ACLT groups (n=12, 6 in each group) or a sham surgery group (n=4). Etanercept was given subcutaneously at 0.5 mg/kg on days 8, and 15 following transection (Treatment A) or on days 15 and 22 (Treatment B). At 28 days following transection, ACL-transected (ACLT), contralateral (CL) and sham joints were harvested and lavaged. Lavaging was performed by injecting 50 μl of normal saline in the joint capsule, flexing and extending the joint for ten times and then aspirating 30 μl of fluid.
# (§3) SF lubricin levels were determined using a sandwich ELISA employing a lubricin-specific monoclonal antibody such as 9G3, and peanut agglutinin. Surface-associated lubricin coverage was calculated from 9G3-stained histological specimens. Quantitiation of lubricin staining intensity was calculated using Image Pro-Plus software (Media Cybernetics, MD, USA) with pre-determined threshold parameters and expressed as percentage of lubricin surface coverage. An average of lubricin surface coverage of the medial and lateral regions of femur and tibial cartilage surfaces was calculated.
# ACL-transection model [5] = test: Surface-associated lubricin coverage from 9G3-stained histological specimens, ACL-transection model, Example 4
# Procedure: as §2, §3
# ACL-transection model [6] = test: Ex-vivo joint coefficient of friction (μ), modified Stanton pendulum, ACL-transection model, Example 4; settings: 28 days following transection
substance,measurement,setting,value
etanercept,Lubricin SF lavage levels,[1],significantly (p<0.001) higher
same,Lubricin SF lavage levels,[1]; listed as ENBREL™,upregulation of lubricin
same,ex-vivo joint coefficient of friction (μ),[2],significantly (p=0.021) lower
same,sGAG SF lavage levels,[3],significantly (p<0.001) lower
same,SF lavage lubricin levels,"ACL-transection model [4]; Treatment A (0.5 mg/kg s.c. days 8 and 15), ACLT joints, vs ACLT control and treatment B",significantly (p<0.01) higher
same,SF lavage lubricin levels in CL joints,"ACL-transection model [4]; contralateral (CL) joints, treatments A and B vs other groups",comparable across the different groups
same,Lubricin coverage in the CL joints,"ACL-transection model [5]; contralateral (CL) joints, treatments A and B vs other groups, 28 days following transection",comparable across the different groups
same,lubricin layer in the superficial zone,"ACL-transection model [5]; inflamed rat joint following an ACL injury, ENBREL alone",reestablishes some of the lubricin layer in the superficial zone
same,Lubricin coverage of articular surfaces (percentage surface coverage),"ACL-transection model [5]; untreated ACLT joints compared to treatments A and B (0.5 mg/kg s.c.), 28 days following transection","significantly (p<0.01) lower than in treatment-A, treatment-B; also recorded: significantly (p<0.01) lower in the ACLT joints compared to treatments A, B"
same,mean coefficient of friction (μ),"ACL-transection model [6]; Treatment A (0.5 mg/kg s.c. days 8 and 15), ACLT joints",6.5*10^−4
same,mean coefficient of friction (μ),"ACL-transection model [6]; Treatment A (0.5 mg/kg s.c. days 8 and 15), CL joints",4.7*10^−4
same,mean coefficient of friction (μ),"ACL-transection model [6]; Treatment B (0.5 mg/kg s.c. days 15 and 22), ACLT joints",6.6*10^−4
same,mean coefficient of friction (μ),"ACL-transection model [6]; Treatment B (0.5 mg/kg s.c. days 15 and 22), CL joints",4.9*10^−4
same,"joints' μ values, treatments A and B vs untreated ACLT and sham joints",ACL-transection model [6]; treatments A and B,lower than the μ values of ACLT joints
